Consider seven molecules from PubChem BioAssay (NCI).

Test systems include COLO 205 colon; EKVX NSCLC; HCC-2998 colon; HOP-62 NSCLC; MALME-3M melanoma; MCF7 breast; NCI-H460 lung; RPMI-8226 leukemia; TK-10 renal; U251 CNS.
What all share (assay): NCI tumour cell line growth inhibition, 48 h

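Following 48 hours of exposure in 96-well plates, responses at five concentrations were used to interpolate endpoints linearly. GI50 marks 50% less growth. TGI: concentration producing complete growth inhibition.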

As to `COc1ccc(-c2ccc(OC)c(OC)c2OC)cc1`, the GI50 in the assay with COLO 205 colon is 1.74 µM; with EKVX NSCLC it was 4.1 µM; with HCC-2998 colon, 2.65 µM; with HOP-62 NSCLC, 2.87 µM; in the assay on MALME-3M melanoma, 9.53 µM; in the assay on MCF7 breast it was 1.77 µM. Further, the GI50 with NCI-H460 lung is 2.7 µM; with RPMI-8226 leukemia, 3.27 µM; with TK-10 renal it was 5.1 µM; with U251 CNS, 2.01 µM. In addition, the TGI was 6.83 µM in the assay on COLO 205 colon; > 100 µM in the assay with EKVX NSCLC; 32 µM in the assay with HCC-2998 colon; > 100 µM in the assay with HOP-62 NSCLC; > 100 µM in the assay on MALME-3M melanoma; > 100 µM in the assay with MCF7 breast. Further, the TGI with NCI-H460 lung is > 48 µM; in the assay on RPMI-8226 leukemia it was > 100 µM; with TK-10 renal it was > 100 µM; in the assay on U251 CNS, > 100 µM.
Consider `CN1CCN(C2=NC(=O)/C(=C\c3ccc(N(C)C)cc3)S2)CC1`, for which the GI50 in the assay with COLO 205 colon, with EKVX NSCLC, in the assay on HCC-2998 colon, in the assay on HOP-62 NSCLC, with MALME-3M melanoma and in the assay with MCF7 breast was > 100 µM in each case. The GI50 in the assay with NCI-H460 lung was > 100 µM; in the assay with RPMI-8226 leukemia, 32.5 µM; in the assay with TK-10 renal, > 100 µM; in the assay on U251 CNS it was > 100 µM. The TGI in the assay on COLO 205 colon, in the assay with EKVX NSCLC, in the assay with HCC-2998 colon, in the assay with HOP-62 NSCLC, with MALME-3M melanoma and in the assay with MCF7 breast was > 100 µM in each case. The TGI in the assay on NCI-H460 lung, with RPMI-8226 leukemia, in the assay with TK-10 renal and with U251 CNS was > 100 µM throughout.
Turning to `N=C1CCCC1C(=S)SCCC(N)=O` (stereo not given), the TGI in the assay with COLO 205 colon, in the assay with EKVX NSCLC, with HCC-2998 colon, in the assay on HOP-62 NSCLC, in the assay with MALME-3M melanoma and in the assay on MCF7 breast was > 100 µM each time. Also, the TGI in the assay on NCI-H460 lung, in the assay with RPMI-8226 leukemia, with TK-10 renal and in the assay with U251 CNS was > 100 µM throughout.
Take `Cc1cccc(C2NC(=O)c3ccccc3N2)c1` (stereo not given): the TGI in the assay with COLO 205 colon is > 100 µM; in the assay with EKVX NSCLC, > 100 µM; in the assay on HCC-2998 colon, > 100 µM; with HOP-62 NSCLC it was 97.1 µM; with MALME-3M melanoma, > 100 µM; with MCF7 breast, > 100 µM. For the same molecule, the TGI in the assay with NCI-H460 lung was > 100 µM; with RPMI-8226 leukemia it was > 27 µM; with TK-10 renal it was > 100 µM; in the assay on U251 CNS, > 31.6 µM.
Consider `O=C1c2cccc3cccc(c23)C(=O)N1CCCCCN1CCN(CCN=c2cc3n(-c4ccc(Cl)cc4)c4ccccc4nc-3cc2Nc2ccc(Cl)cc2)CC1`, for which the GI50 with COLO 205 colon was 2.38 µM; in the assay on EKVX NSCLC, 14.5 µM; with HCC-2998 colon, 8.93 µM; with HOP-62 NSCLC, 8.63 µM; in the assay with MALME-3M melanoma, 20.8 µM; in the assay on MCF7 breast, 8.24 µM. For the same molecule, the GI50 in the assay on NCI-H460 lung was 13.2 µM; with RPMI-8226 leukemia, 5.22 µM; with TK-10 renal it was 25 µM; in the assay with U251 CNS, 14.2 µM. Further, the TGI with COLO 205 colon was > 50 µM; with EKVX NSCLC, > 50 µM; in the assay on HCC-2998 colon it was 31.4 µM; with HOP-62 NSCLC it was 23.5 µM; in the assay on MALME-3M melanoma, > 50 µM; with MCF7 breast, 38.4 µM. The TGI in the assay with NCI-H460 lung is > 50 µM; with RPMI-8226 leukemia, 16.9 µM; in the assay on TK-10 renal, > 50 µM; in the assay on U251 CNS it was 40.3 µM.
Take `COc1ccc(-n2c(=S)sc3c(Cl)nc(C)nc32)c(OC)c1`: the GI50 with COLO 205 colon was 3.83 µM; with EKVX NSCLC, 4.55 µM; in the assay on HCC-2998 colon it was 16.2 µM; in the assay on HOP-62 NSCLC, 2.57 µM; in the assay with MALME-3M melanoma, 2.23 µM; in the assay on MCF7 breast it was 3.67 µM. The GI50 in the assay with NCI-H460 lung was 3.12 µM; in the assay with RPMI-8226 leukemia, 3.45 µM; with TK-10 renal, 4.66 µM; with U251 CNS, 1.91 µM. In addition, the TGI with COLO 205 colon was found to be 13.3 µM; in the assay on EKVX NSCLC it was 17 µM; in the assay on HCC-2998 colon, 31.1 µM; in the assay with HOP-62 NSCLC it was 7.68 µM; in the assay on MALME-3M melanoma it was 6.23 µM; with MCF7 breast, 15.6 µM. Further, the TGI is 9.04 µM in the assay on NCI-H460 lung, 14 µM in the assay on RPMI-8226 leukemia, 18.7 µM in the assay on TK-10 renal and 3.65 µM with U251 CNS.
Turning to `COc1cc(/C=N/NC(=O)c2cnn3c2NC(c2ccccc2)C3)ccc1OC1CCCC1` (stereo not given), the GI50 with COLO 205 colon was 0.59 µM; in the assay with EKVX NSCLC, 1.51 µM; in the assay with HCC-2998 colon, 3.19 µM; in the assay on HOP-62 NSCLC, 0.83 µM; in the assay on MALME-3M melanoma it was 1.02 µM; with MCF7 breast it was 0.373 µM. Moreover, the GI50 was 0.389 µM in the assay with NCI-H460 lung, 0.527 µM in the assay on RPMI-8226 leukemia, 4.06 µM with TK-10 renal and 0.92 µM in the assay with U251 CNS. Moreover, the TGI in the assay with COLO 205 colon came to 7.53 µM; in the assay on EKVX NSCLC it was 14 µM; in the assay on HCC-2998 colon, 19.7 µM; in the assay with HOP-62 NSCLC, 6.47 µM; in the assay with MALME-3M melanoma it was 4.28 µM; in the assay on MCF7 breast it was 4.07 µM. For the same molecule, the TGI came out at 1.56 µM with NCI-H460 lung, 4.91 µM with RPMI-8226 leukemia, 16.3 µM with TK-10 renal and 5.91 µM in the assay on U251 CNS.
